# From ChEMBL document CHEMBL5154649, “Design, synthesis, and characterization of novel aminoalcohol quinolines with strong in vitro antimalarial activity” (Eur J Med Chem, 2022)
# Columns and labels:
# [1] = Selectivity index, ratio of IC50 for cytotoxicity against chinese hamster CHO cells to IC50 for antiplasmodial activity against Plasmodium falciparum 3D7 infected in human erythrocytes by HRP2-ELISA; assay type: toxicity, cell-based; details: read-out: Ratio IC50
# [2] = Drug metabolism in human liver microsomes assessed as oxidative metabolite formation measured after 5 mins by LC-MS analysis; assay type: ADME, Microsome
# [3] = biological target: T1, Cytochrome P450 3A4 (Homo sapiens, UniProt P08684); assay: Inhibition of CYP3A4 in human liver microsomes assessed as reduction in 1'-hydroxy midazolam formation using midazolam as substrate preincubated for 20 mins in presence of NADPH followed by incubation with substrate for 10 mins by LC-MS/MS analysis; assay type: ADME, Microsome
# [4] = test system: Plasmodium falciparum; assay: Antiplasmodial activity against CQ-susceptible Plasmodium falciparum 3D7 infected in human erythrocytes assessed as inhibition of parasite growth measured after 72 hrs by HRP2-ELISA; assay type: functional, organism-based; details: 3D7, Erythrocyte
# [5] = Drug metabolism in rat liver microsomes assessed as oxidative metabolite formation measured after 5 mins by LC-MS analysis; assay type: ADME, Microsome
# [6] = biological target: Voltage-gated inwardly rectifying potassium channel KCNH2 (Homo sapiens, UniProt Q12809); assay: Inhibition of hERG channel expressed in CHO cells at holding potential of -80 mV by whole cell patch clamp method; assay type: toxicity, cell-based
# [7] = test system: Plasmodium falciparum; assay: Antiplasmodial activity CQ-resistant Plasmodium falciparum W2 infected in human erythrocytes assessed as inhibition of parasite growth measured after 72 hrs by HRP2-ELISA; assay type: functional, organism-based; details: W2, Erythrocyte
# [8] = Drug metabolism in mouse liver microsomes assessed as (S)-2-(((S)-2-(2,8-Bis(trifluoromethyl)quinolin-4-yl)-2-hydroxyethyl)amino)-3-phenylpropan-1-ol metabolite formation measured after 5 mins by LC-MS analysis; assay type: ADME, Microsome
# [9] = biological target: T1, Cytochrome P450 3A4; assay: Inhibition of CYP3A4 in human liver microsomes assessed as reduction in 6-beta-hydroxy-testosterone formation using testosterone as substrate preincubated for 20 mins in presence of NADPH followed by incubation with substrate for 10 mins by LC-MS/MS analysis; assay type: ADME, Microsome
# [10] = Apparent permeability across apical to basolateral side in human Caco-2/TC7 cells at 20 uM incubated for 2 hrs by LC-MS/MS analysis; assay type: ADME, cell-based, Caco2/TC7
# [11] = Selectivity index, ratio of IC50 for cytotoxicity against human HepG2 cells to IC50 for antiplasmodial activity against Plasmodium falciparum 3D7 infected in human erythrocytes by HRP2-ELISA; assay type: toxicity, cell-based; details: read-out: Ratio IC50
# [12] = Metabolic stability in mouse liver microsomes assessed as intrinsic clearance at 0.5 uM incubated for 30 mins by LC-MS/MS analysis; assay type: ADME, Microsome; details: read-out: CLH
# [13] = Genotoxicity in CHO-K1 cells at 0.001 to 1 mM incubated for 3 hrs in presence of S9 mix by in vitro micronucleus test; assay type: toxicity, cell-based, Cricetulus griseus; details: chinese hamster, cho-k1, 3 h, 1000 µM, dose 0.001-1 mM
# [14] = Cytotoxicity against human HFF cells assessed as reduction in cell viability incubated for 72 hrs by MTT assay; assay type: toxicity, cell-based
# [15] = Drug metabolism in mouse liver microsomes assessed as (1S)-2-amino-1-[2,8-bis(trifluoromethyl)quinolin-4-yl]ethan-1-ol metabolite formation measured after 5 mins by LC-MS analysis; assay type: ADME, Microsome
# [16] = Selectivity index, ratio of IC50 for cytotoxicity against human THP-1 cells to IC50 for antiplasmodial activity against Plasmodium falciparum 3D7 infected in human erythrocytes by HRP2-ELISA; assay type: toxicity, cell-based; details: read-out: Ratio IC50
# [17] = test system: Plasmodium falciparum; assay: Selectivity index, ratio of IC50 for antiplasmodial activity against CQ-susceptible Plasmodium falciparum 3D7 to IC50 for antiplasmodial activity against CQ-resistant Plasmodium falciparum W2 by SYBR Green 1 dye based fluorescence assay; assay type: functional
# [18] = Cytotoxicity against Chinese hamster CHO cells assessed as reduction in cell viability incubated for 24 hrs by MTT assay; assay type: toxicity, cell-based, Cricetulus griseus
# [19] = Genotoxicity in CHO-K1 cells at 0.001 to 1 mM incubated for 24 hrs without metabolic activation by in vitro micronucleus test; assay type: toxicity, cell-based, Cricetulus griseus; details: chinese hamster, cho-k1, 24 h, 1000 µM, dose 0.001-1 mM
# [20] = Metabolic stability in rat liver microsomes assessed as intrinsic clearance at 0.5 uM incubated for 30 mins by LC-MS/MS analysis; assay type: ADME, Microsome; details: read-out: CLH
# [21] = biological target: T1, Cytochrome P450 3A4; assay: Inhibition of CYP3A4 in human liver microsomes assessed as reduction in 1'-hydroxy midazolam formation using midazolam as substrate preincubated for 20 mins in absence of NADPH followed by incubation with substrate for 10 mins by LC-MS/MS analysis; assay type: ADME, Microsome
# [22] = biological target: T1, Cytochrome P450 3A4; assay: Inhibition of CYP3A4 in human liver microsomes assessed as reduction in 6-beta-hydroxy-testosterone formation using testosterone as substrate preincubated for 20 mins in absence of NADPH followed by incubation with substrate for 10 mins by LC-MS/MS analysis; assay type: ADME, Microsome
# [23] = Selectivity index, ratio of IC50 for human HFF cells to IC50 for antiplasmodial activity against Plasmodium falciparum 3D7 infected in human erythrocytes by HRP2-ELISA; assay type: toxicity, cell-based; details: read-out: Ratio IC50
# [24] = Apparent permeability across apical to basolateral side in human Caco-2/TC7 cells assessed as drug recovery at 20 uM incubated for 2 hrs by LC-MS/MS analysis; assay type: ADME, cell-based, Caco2/TC7; details: read-out: Drug recovery
# [25] = test system: Plasmodium falciparum; assay: Selectivity index, ratio of IC50 for antiplasmodial activity against CQ-susceptible Plasmodium falciparum 3D7 to IC50 for antiplasmodial activity CQ-resistant Plasmodium falciparum W2 by HRP2-ELISA; assay type: functional
# [26] = Cytotoxicity against human THP-1 cells assessed as reduction in cell viability incubated for 72 hrs by MTT assay; assay type: toxicity, cell-based
# [27] = test system: Plasmodium falciparum; assay: Antiplasmodial activity against CQ-susceptible Plasmodium falciparum 3D7 assessed as inhibition of parasite growth measured after 48 hrs by SYBR Green 1 dye based fluorescence assay; assay type: functional, organism-based; details: 3D7, 48 h
# [28] = test system: Plasmodium falciparum; assay: Antiplasmodial activity against CQ-resistant Plasmodium falciparum W2 assessed as inhibition of parasite growth measured after 48 hrs by SYBR Green 1 dye based fluorescence assay; assay type: functional, organism-based; details: W2, 48 h
# [29] = Cytotoxicity against human HepG2 cells assessed as reduction in cell viability incubated for 72 hrs by MTT assay; assay type: toxicity, cell-based
# [30] = Metabolic stability in human liver microsomes assessed as intrinsic clearance at 0.5 uM incubated for 30 mins by LC-MS/MS analysis; assay type: ADME, Microsome; details: read-out: CLH
# [31] = Selectivity index, ratio of IC50 for cytotoxicity against human HFF cells to IC50 for antiplasmodial activity against CQ-susceptible Plasmodium falciparum 3D7 by SYBR Green 1 dye based fluorescence assay; assay type: toxicity, cell-based; details: HFF cells versus CQ-susceptible Plasmodium falciparum 3D7, read-out: Ratio IC50
# [32] = Selectivity index, ratio of IC50 for cytotoxicity against human THP-1 cells to IC50 for antiplasmodial activity against CQ-susceptible Plasmodium falciparum 3D7 by SYBR Green 1 dye based fluorescence assay; assay type: toxicity, cell-based; details: THP-1 cells versus CQ-susceptible Plasmodium falciparum 3D7, read-out: Ratio IC50
# [33] = Selectivity index, ratio of IC50 for cytotoxicity against human HepG2 cells to IC50 for antiplasmodial activity against CQ-susceptible Plasmodium falciparum 3D7 by SYBR Green 1 dye based fluorescence assay; assay type: toxicity, cell-based; details: HepG2 cells versus CQ-susceptible Plasmodium falciparum 3D7, read-out: Ratio IC50
# [34] = Selectivity index, ratio of IC50 for cytotoxicity against chinese hamster CHO cells to IC50 for antiplasmodial activity against CQ-susceptible Plasmodium falciparum 3D7 by SYBR Green 1 dye based fluorescence assay; assay type: toxicity, cell-based; details: CHO cells versus CQ-susceptible Plasmodium falciparum 3D7, read-out: Ratio IC50
# T1 sequence (P08684 whole entry): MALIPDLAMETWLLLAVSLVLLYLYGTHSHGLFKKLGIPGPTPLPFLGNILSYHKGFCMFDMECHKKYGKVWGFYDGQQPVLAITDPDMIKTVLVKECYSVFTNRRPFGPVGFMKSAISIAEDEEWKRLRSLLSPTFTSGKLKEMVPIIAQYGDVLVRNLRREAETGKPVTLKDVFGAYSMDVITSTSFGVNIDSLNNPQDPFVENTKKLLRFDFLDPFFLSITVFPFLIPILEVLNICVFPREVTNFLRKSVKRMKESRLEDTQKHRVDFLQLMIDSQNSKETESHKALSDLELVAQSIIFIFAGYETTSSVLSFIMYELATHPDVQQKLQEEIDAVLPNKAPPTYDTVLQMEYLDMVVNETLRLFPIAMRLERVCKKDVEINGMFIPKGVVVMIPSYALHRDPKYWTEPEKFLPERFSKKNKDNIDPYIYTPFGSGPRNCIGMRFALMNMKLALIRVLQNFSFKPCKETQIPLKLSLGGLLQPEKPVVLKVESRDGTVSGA
# Sequence of Voltage-gated inwardly rectifying potassium channel KCNH2 (Q12809 whole entry): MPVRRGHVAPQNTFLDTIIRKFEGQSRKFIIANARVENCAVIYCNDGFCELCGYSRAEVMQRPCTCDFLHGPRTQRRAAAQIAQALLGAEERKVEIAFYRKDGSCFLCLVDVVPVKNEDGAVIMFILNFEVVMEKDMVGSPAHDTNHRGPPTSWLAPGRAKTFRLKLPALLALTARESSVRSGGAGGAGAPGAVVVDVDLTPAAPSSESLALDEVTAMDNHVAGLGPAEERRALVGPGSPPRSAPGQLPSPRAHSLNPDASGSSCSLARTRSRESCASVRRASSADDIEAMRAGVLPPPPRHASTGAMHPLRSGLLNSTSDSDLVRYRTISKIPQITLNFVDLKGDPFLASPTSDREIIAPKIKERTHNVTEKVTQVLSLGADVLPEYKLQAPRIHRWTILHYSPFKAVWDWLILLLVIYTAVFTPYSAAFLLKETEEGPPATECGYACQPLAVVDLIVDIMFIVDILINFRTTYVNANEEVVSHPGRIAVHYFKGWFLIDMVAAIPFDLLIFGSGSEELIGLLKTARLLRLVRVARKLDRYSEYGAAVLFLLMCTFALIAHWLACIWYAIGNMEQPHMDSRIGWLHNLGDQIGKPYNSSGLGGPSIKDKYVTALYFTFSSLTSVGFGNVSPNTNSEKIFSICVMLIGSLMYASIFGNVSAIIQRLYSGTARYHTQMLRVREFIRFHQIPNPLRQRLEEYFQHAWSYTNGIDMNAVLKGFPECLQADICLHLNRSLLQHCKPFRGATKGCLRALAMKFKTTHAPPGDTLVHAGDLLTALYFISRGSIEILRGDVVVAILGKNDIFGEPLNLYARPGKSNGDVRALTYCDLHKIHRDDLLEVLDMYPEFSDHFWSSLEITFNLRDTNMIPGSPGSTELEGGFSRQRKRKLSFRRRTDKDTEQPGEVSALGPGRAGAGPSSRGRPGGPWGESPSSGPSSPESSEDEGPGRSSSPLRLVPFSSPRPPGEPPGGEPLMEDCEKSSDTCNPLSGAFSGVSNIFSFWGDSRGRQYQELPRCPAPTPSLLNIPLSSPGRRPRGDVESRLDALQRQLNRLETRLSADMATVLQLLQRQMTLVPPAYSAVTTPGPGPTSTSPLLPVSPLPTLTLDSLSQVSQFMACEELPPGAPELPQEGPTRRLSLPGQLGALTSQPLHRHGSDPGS
smiles,measurement,setting,value
COC[C@H](Cc1ccccc1)NC[C@@H](O)c1cc(C(F)(F)F)nc2c(C(F)(F)F)cccc12,selectivity ratio,[1],3170
same,Drug metabolism,[2],Metabolite_Detected
same,IC50,[3],5.9 µM
same,IC50,[4],14.9 nM
same,Drug metabolism,[5],Metabolite_Detected
same,IC50,[6],17.3 µM
same,IC50,[7],11 nM
same,Drug metabolism,[8],Metabolite_Detected
same,IC50,[9],2300 nM
same,"Papp A→B at 2 h, 20 µM",[10],6.1 ×10⁻⁶ cm/s
same,selectivity ratio,[11],778
same,microsomal CLint at 0.5 µM,[12],> 1000 µL/min/mg
same,Activity,[13],Non-Toxic
same,IC50 at 72 h,[14],44.2 µM
same,Drug metabolism,[15],Metabolite_Detected
same,selectivity ratio,[16],1090
same,Ratio IC50,[17],1.1
same,IC50 at 24 h,[18],47.3 µM
same,Activity,[19],Non-Toxic
same,microsomal CLint at 0.5 µM,[20],> 1000 µL/min/mg
same,IC50,[21],2800 nM
same,IC50,[22],2900 nM
same,selectivity ratio,[23],2970
same,"recovery at 2 h, 20 µM",[24],81%
same,Ratio IC50,[25],1.35
same,IC50 at 72 h,[26],16.2 µM
same,IC50,[27],15.1 nM
same,IC50,[28],13.2 nM
same,IC50 at 72 h,[29],11.6 µM
same,microsomal CLint at 0.5 µM,[30],> 1000 µL/min/mg
O[C@@H](CNCCN1CCN(C(c2ccccc2)c2ccccc2)CC1)c1cc(C(F)(F)F)nc2c(C(F)(F)F)cccc12,selectivity ratio,[31],308
same,selectivity ratio,[32],168
same,selectivity ratio,[33],73
same,IC50 at 72 h,[14],13.9 µM
same,Ratio IC50,[17],0.6
same,IC50 at 24 h,[18],10.2 µM
same,selectivity ratio,[34],226
same,IC50 at 72 h,[26],7.6 µM
same,IC50,[27],45.1 nM
same,IC50,[28],76.5 nM
same,IC50 at 72 h,[29],3.3 µM
